Experimental data as given in patent publication US20080242649A1, “New Combination 665” (priority 2007, published 2008).
Counter-ions that a name gives are not always drawn.

Legend:
[1] = tested on: methacholine-induced bronchoconstriction; assay: Lung function in anaesthetized guinea-pigs, methacholine challenge; format: in vivo, Dunkin-Hartley guinea pig; settings: for inhibition of methacholine-induced bronchoconstriction: methacholine 5 μg/kg i.v.; for increase in resistance: methacholine 5 μg/kg, vehicle 1898±211%
Method: (§1) Evaluation of Lung Function in Anaesthetized Guinea-Pigs
(§2) Male Dunkin-Hartley guinea pigs (300-600 g) were weighed and dosed with vehicle (0.05M phosphate, 0.1% Tween 80, 0.6% saline, pH 6) or compound via the intratracheal route under recoverable gaseous anaesthesia (5% halothane in oxygen). Animals were dosed with compound or vehicle two hours prior to the administration of histamine or methacholine.
(§3) Guinea pigs were anaesthetized with pentobarbitone (1 mL/kg of 60 mg/mL solution i.p.) approximately 30 minutes prior to the first bronchoconstrictor administration. The trachea was cannulated and the animal ventilated using a constant volume respiratory pump (Harvard Rodent Ventilator model 683) at a rate of 60 breath/min and a tidal volume of 5 ml/kg. A jugular vein was cannulated for the administration of histamine, methacholine or maintenance anaesthetic (0.1 mL of pentobarbitone solution, 60 mg/mL, as required).
(§4) The animals were transferred to a Flexivent System (SCIREQ, Montreal, Canada) in order to measure airway resistance. The animals were ventilated (quasi-sinusoidal ventilation pattern) at 60 breaths/min at a tidal volume of 5 mL/kg. A positive end expiratory pressure of 2-3 cmH2O was applied. Respiratory resistance was measured using the Flexivent “snapshot” facility (1 second duration, 1 Hz frequency). Once stable baseline resistance value had been obtained the animals were given histamine or methacholine in ascending doses (0.5, 1, 2, 3 and 5 μg/kg, i.v.) at approximately 4-minute intervals via the jugular catheter. After each administration of bronchoconstrictor the peak resistance value was recorded. Guinea pigs were euthanized with approximately 1.0 mL pentobarbitone sodium (Euthatal) intravenously after the completion of the lung function measurements. Percentage bronchoprotection produced by a compound was calculated at each dose of brochoconstrictor as follows:
(§5) Where % change Rveh is the mean of the maximum percentage change in airway resistance in the vehicle treated group. The results reported were measured after 5 μg/kg histamine or methacholine and were expressed as percentage bronchoprotection (mean ±s.e.mean).

[2] = tested on: histamine-induced bronchoconstriction; assay: Lung function in anaesthetized guinea-pigs, histamine challenge; format: in vivo, Dunkin-Hartley guinea pig; settings: for inhibition of histamine-induced bronchoconstriction: histamine 5 μg/kg i.v.; for increase in bronchoconstriction: histamine 5 μg/kg, vehicle 1100±161%
Method: as §1, §2, §3, §4, §5

Adrenergic β2 = molecular target: T1, Adrenergic β2 (Homo sapiens, UniProt P07550); assay: Adrenergic β2 mediated cAMP production in H292 cells (AlphaScreen); format: cell-based
T1 construct: Adherent H292 cells were removed from tissue culture flasks; endogenous in cells; host or cells: H292 cells
T1 sequence (P07550 whole entry): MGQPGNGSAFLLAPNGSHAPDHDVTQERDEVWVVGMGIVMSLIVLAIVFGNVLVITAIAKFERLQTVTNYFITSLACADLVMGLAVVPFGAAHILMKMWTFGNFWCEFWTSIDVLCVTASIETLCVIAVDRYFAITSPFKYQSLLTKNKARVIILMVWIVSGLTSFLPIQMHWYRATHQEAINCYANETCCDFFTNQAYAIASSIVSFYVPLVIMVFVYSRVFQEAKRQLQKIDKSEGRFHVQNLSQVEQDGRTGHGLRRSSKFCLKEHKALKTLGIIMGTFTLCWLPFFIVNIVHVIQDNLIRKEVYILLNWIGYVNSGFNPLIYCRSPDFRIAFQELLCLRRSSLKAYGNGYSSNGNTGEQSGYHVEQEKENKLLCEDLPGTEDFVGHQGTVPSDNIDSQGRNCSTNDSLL
Method: Adrenergic β2 mediated cAMP production
H292 cells were grown in 225 cm2 flasks incubator at 37° C., 5% CO2 in RPMI medium containing, 10% (v/v) FBS (foetal bovine serum) and 2 mM L-glutamine.
Adherent H292 cells were removed from tissue culture flasks by treatment with Accutase™ cell detachment solution for 15 minutes. Flasks were incubated for 15 minutes in a humidified incubator at 37° C., 5% CO2. Detached cells were re-suspended in RPMI media (containing 10% (v/v) FBS and 2 mM L-glutamine) at 0.05×10^6 cells per mL. 5000 cells in 100 μL were added to each well of a tissue-culture-treated 96-well plate and the cells incubated overnight in a humidified incubator at 37° C., 5% CO2. The culture media was removed and cells were washed twice with 100 μL assay buffer and replaced with 50 μL assay buffer (HBSS solution containing 10 mM HEPES pH7.4 and 5 mM glucose). […]
The concentration of cAMP (cyclic adenosine monophosphate) in the cell lysate was determined using AlphaScreen™ methodology. […] The AlphaScreen™ signal was measured using an EnVision spectrophotometer (Perkin-Elmer Inc.) with the recommended manufacturer's settings. cAMP concentrations were determined by reference to a calibration curve determined in the same experiment using standard cAMP concentrations. […] Intrinsic Activity was expressed as a fraction relative to the maximum activity determined for formoterol in each experiment. […]

guinea pig trachea = assay: Bronchodilator onset in guinea pig isolated tracheal ring contracted with methacholine
Method: Evaluation of Bronchodilator Activity in the Guinea Pig Isolated Tracheal Ring Preparation
Guinea pigs (300-500 g) were killed by cervical dislocation and the trachea was isolated. The trachea was cut into segments 2-3 cartilage rings in width and suspended in 10 ml organ baths in modified Krebs' solution (mM; NaCl, 90; NaHCO3, 45; KCl, 5; MgSO4.7H2O, 0.5; Na2HPO4.2H2O, 1; CaCl2, 2.25; glucose, 10; pH 7.4) gassed with 5% CO2, 95% […] at 37° C.). The tracheal rings were attached to an isometric force transducer for the measurement of isometric tension. The tissues were washed and a force of 1 g was applied to each tissue. The rings were contracted with methacholine (1 μM). Once the contraction had reached a plateau, vehicle (0.01% DMSO in distilled H2O), compound A (3 nM), roflumilast (1 μM) or a combination of compound A (3 nM) and roflumilast (1 μM) was added and the tissue left until the response had reached a plateau. Data were collected using the Chart 4 software (ADInstruments, Charlgrove, UK). The time to 90% of the maximum effect of the bronchodilator (onset time) was measured and expressed in min (mean ±s.e.mean).

[3] = compound A 1 μg/kg intratracheal 2 h before
[4] = compound A 1 μg/kg intratracheal
[5] = compound A 27 μg/kg intratracheal 2 h before
[6] = compound A 27 μg/kg intratracheal

Q: Which “inhibition of methacholine-induced bronchoconstriction” value [1, 3] does the source give for CCN(CC)CCN(CCNCCc1ccc(O)c2[nH]c(=O)sc12)C(=O)CCOCCc1cccc2ccccc12 [Compound A, N-[2-(Diethylamino)ethyl]-N-(2-{[2-(4-hydroxy-2-oxo-2,3-dihydro-1,3-benzothiazol-7-yl)ethyl]amino}ethyl)-3-[2-(1-naphthyl)ethoxy]propanamide dihydrobromide] here?
A: 15%

Q: What about the increase in resistance [1, 4] of the same compound?
A: 1619±235%

Q: And the “inhibition of methacholine-induced bronchoconstriction” value [1, 5]?
A: 82%

Q: What about the increase in resistance [1, 6] of the same compound?
A: 347±71%

Q: And the “inhibition of histamine-induced bronchoconstriction” value [2, 3]?
A: 49%

Q: And the increase in bronchoconstriction [2, 4]?
A: 544±60%

Q: What about the “inhibition of histamine-induced bronchoconstriction” value [2, 5] of the same compound?
A: 87%

Q: And the increase in bronchoconstriction [2, 6]?
A: 140±36%

Q: And the EC50 (Adrenergic β2; H292 cells, cAMP, 300 μM rolipram, read-out: β2 pEC50 (converted))?
A: 6.31 nM

Q: What about the “β2 Int Act” value (Adrenergic β2; Intrinsic Activity as fraction relative to maximum activity of formoterol) of the same compound?
A: 0.8

Q: And the “onset time (time to 90% of the maximum effect)” value (guinea pig trachea; Compound A 3 nM in the presence of roflumilast 1 μM)?
A: 5.7 ± 1.0 min

Q: And the “onset time (time to 90% of the maximum effect)” value (guinea pig trachea; compound A 3 nM alone, methacholine 1 μM contraction, mean ±s.e.mean)?
A: 16 ± 3.0 min
